Laboratory results taken from patent US20210046079A1, “COMBINATION THERAPY TO IMPROVE BRAIN FUNCTION OR PROMOTE NEUROGENESIS FOR TREATING NEURODEGENERATIVE CONDITIONS” (UNIVERSITY OF CENTRAL FLORIDA RESEARCH FOUNDATION, INC., priority 2016, published 2021).
Entries after “also recorded” stand apart in the source; their conditions may differ. Structures can show the parent of a compound that is named as a salt.

Columns and labels:
[1] = system: 5xFAD mice; test: Radial water maze test of 5xFAD mice; assay type: in vivo; conditions: for number of errors in the trial (memory), radial water maze: 5xFAD mice, compared to wild type
Text: B 6SJL-Tg(APPSwF1Lon,PSEN1*M146L*L286V)6799Vas/Mmjax transgenic (5xFAD) mice, which have 5 familial AD (FAD) mutant human genes, show pathological and behavioral signs of AD, including Aβdeposition at 2 months and progressive deficits in behavior. 5xFAD mice have successfully modeled behavior deficits seen in Alzheimer's disease in previous studies, and have been previously evaluated using the Morris water maze, open field test, and radial arm water maze. We purchased 2 males and 4 females heterozygous 5XFAD mice as breeders. We housed breeders in pairs of one male and 2 females. Gestation lasts 19-21 days. Pups (about 5-6 in each delivery) were weaned at (removed from breeding cage and separated) at 3 weeks of age. Tissue for genotyping was collected at the same time that ID numbers are applied. The genotyping was performed by PCR amplification of the SFAD gene. We used male 5xFAD mice (8months old) for this study.
The radial water maze test was performed using a maze with six arms (32 cm length and 19 cm width) radiated from the central circular region (36 cm diameter) placed in a circular pool (100 cm diameter). A clear round platform (9 cm diameter) was placed in one of the arms at 1.5 cm beneath the surface of the water, which was opacified with nontoxic white paint. The water was kept between 22-25° C. Surrounding the pool, a visual cue was placed at each end of the radial arms. Each session consists of four acquisition trials (T1-T4), followed by a 30-min delay interval and then a retention trial (T5). For each session, an escape platform was placed at the end of the goal arm, which was different between sessions. At the beginning of each trial, the mice were placed at the end of one of the remaining five non-goal arms. The mouse was positioned facing the wall, away from the center. Each trial lasts 60 seconds, during which an animal was allowed to swim in order to find the platform. The latency to locate the submerged platform and the number of entries to the non-goal arms were recorded as errors. […]

[2] = Kidney or liver toxicity; conditions: in vivo
[3] = system: neural stem cells; test: Cell counting after immunohistochemistry of postmortem brains (BrdU, βIII-tublin, GFAP); assay type: in vivo, mice
Description: Once mice reach the criterion for the pre-treatment behavioral testings, posiphen (25 mg/kg) was injected (s.c.) once a day for 7 consecutive days; followed by a combination of posiphen (25 mg/kg) and NBI-18 (0, 3, 10 mg/kg) was, injected (s.c.) once a day, for seven consecutive days; followed by another series of posiphen (25 mg/kg) injections (s.c.) once a day, for seven consecutive days. On the final two days of the combination injections, an injection of BrdU (100 mg/kg) was administered separately (s.c.) once per day.

[4] = system: βAPP; conditions: Greig et al., U.S. Patent Pub. 2004/0024043 and 2004/0138282; cited from earlier work
[5] = system: cholinesterase; conditions: Greig et al., U.S. Patent Pub. 2004/0024043 and 2004/0138282; cited from earlier work
[6] = system: APP; conditions: AD model animals and patients; cited from earlier work

| SMILES | number of errors in the trial (memory), radial water maze ([1]; NBI-18 3 mg/kg s.c. alone) | memory function / performance in memory tasks ([1]; AD model animals, summary statement, dose not stated) | dose range without detected kidney or liver toxicity [2] | new neurons formed / neurogenesis in the brain ([3]; AD model mice, NBI-18 row: without Posiphen treatment, combination row: vs untreated AD model group) | dose at which the effect on stem cell proliferation is maxed out ([3]; brains of the animals used in the behavioral test) [mg/kg] | neural stem cell proliferation / number ([3]; brains of the animals used in the behavioral test, maleate) | number of errors in the trial (memory), radial water maze ([1]; Posiphen 25 mg/kg s.c. alone) | βAPP levels in the brain [4] | cholinesterase activity [5] | APP [6] |
| --- | --- | --- | --- | --- | --- | --- | --- | --- | --- | --- |
| CN1Cc2nc(N3CCNCC3)ncc2C1=O [NBI-18, 6-Methyl-2-(1-piperazinyl)-6,7-dihydro-5H-pyrrolo[3,4-d]-pyrimidin-5-one maleate] | showed significant memory deficit compare to the wild type | does not help to improve memory function | up to 1000 mg/kg | does not reflect the increase of new neurons formed | 3 | significantly increases endogenous neural stem cells; also recorded: increased stem cell proliferation |  |  |  |  |
| CN1CC[C@]2(C)c3cc(OC(=O)Nc4ccccc4)ccc3N(C)[C@H]12 [Posiphen, (+)-phenserine] |  |  |  |  |  |  | showed significant memory deficit compare to the wild type | dramatically reduces βAPP levels in the brain | lacks cholinesterase activity | reduction of APP |
